Results on 13 compounds are retold here after patent US7462600B2, “Macrolides” (Pfizer Inc, priority 2004, dated 2008).

Each structure is given as a SMILES string. Values after ≈ are worked out from the molar mass of the structure shown. Read-outs that look alike come from different tables or passages of the source.

Common to all, as to assay type: cell-based
Assay [1] concerns Streptococcus pneumoniae 1095. The note with it: microtiter broth dilution. An outline of the steps:
(§1)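 Stock solutions of 40 mg/ml in DMSO were used. MIC values came from microtiter-tray broth dilution following NCCLS M100-S14 guidelines.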

The subject of assay [2] is Streptococcus pneumoniae 1175. As to conditions: microtiter broth dilution. An outline of the steps:
as §1

Assay [3] concerns Haemophilus influenzae 1218. Description: MIC, microtiter broth dilution (NCCLS M100-S14), H. influenzae 1218 (susceptible). An outline of the steps: as §1
Background: Dilution methods test growth across graded concentrations, often in twofold steps.

The test system of assay [4] is Streptococcus pyogenes 1079. In words: MIC, microtiter broth dilution (NCCLS M100-S14), S. pyogenes 1079 (ermB). The essentials: as §1
The test system of assay [5] is Streptococcus pneumoniae 1016. Description: MIC, microtiter broth dilution (NCCLS M100-S14), S. pneumoniae 1016 (susceptible). An outline of the steps:
as §1

Setting [6] is: H. influenzae 1218 (susceptible).
Where [7] appears, read: S. pneumoniae 1016 (susceptible).

Regarding `CCC(c1ccnc2ccccc12)N1CC(N2C(=O)OC3(C)C(CC)OC(=O)C(C)C(=O)C(C)C(OC4OC(C)CC(N(C)C)C4O)C(C)(OC)CC(C)C(=O)C(C)C23)C1` (mixture of isomers) [Example 1.61, 3-descladinosyl-11,12-dideoxy-6-O-methyl-3-oxo-12,11-(oxycarbonyl-(1-(1-(quinolin-4-yl)-propyl)-azetidin-3-yl)-imino)-erythromycin A], in assay [1] (Streptococcus pneumoniae 1095), the “MIC S. pneumo. 1095” value is under 0.06 µg/mL. Further, the “MIC S. pneumo. 1175” value in assay [2] (Streptococcus pneumoniae 1175) was 0.25 µg/mL. Also, the “MIC H. influenzae 1218” value in assay [3] (Haemophilus influenzae 1218) worked out at 4 µg/mL. Further, the “MIC S. pyogenes 1079” value in assay [4] (Streptococcus pyogenes 1079) was determined as 8 µg/mL. In addition, the “MIC S. pneumo. 1016” value in assay [5] (Streptococcus pneumoniae 1016) was under 0.06 µg/mL.
For `CCC1OC(=O)C(C)C(=O)C(C)C(OC2OC(C)CC(N(C)C)C2O)C(C)(OC)CC(C)C(=O)C(C)C2N(CC3CCCN3C(=O)c3cccc4cccnc34)C(=O)OC12C.O=CO` (centres unmarked) [10.11], in assay [1] (S. pneumoniae 1095 (ermB)), the “MIC S. pneumo. 1095” value came to 0.5 µg/mL. Further, the “MIC S. pneumo. 1175” value in assay [2] (S. pneumoniae 1175 (mefA)) stood at 4 µg/mL. In assay [3] (setting [6]), the “MIC H. influenzae 1218” value is 16 µg/mL. Besides, in assay [4] (S. pyogenes 1079 (ermB)), the “MIC S. pyogenes 1079” value was over 64.00 µg/mL. Also, the “MIC S. pneumo. 1016” value in assay [5] (setting [7]) is under 0.06 µg/mL.
As to `CCC1OC(=O)C(C)C(=O)C(C)C(OC2OC(C)CC(N(C)C)C2O)C(C)(OC)CC(C)C(=O)C(C)C2N(CC3CN(Cc4cccc5ncccc45)C3)C(=O)OC12C` (centres unmarked) [4.15], in assay [1] (Streptococcus pneumoniae 1095), the “MIC S. pneumo. 1095” value was under 0.06 µg/mL. Moreover, the “MIC S. pneumo. 1175” value in assay [2] (Streptococcus pneumoniae 1175) was under 0.06 µg/mL. Further, the “MIC H. influenzae 1218” value in assay [3] (Haemophilus influenzae 1218) stood at 0.25 µg/mL (≈ 0.304 µM). The “MIC S. pyogenes 1079” value in assay [4] (Streptococcus pyogenes 1079) turned out to be 32 µg/mL (≈ 38.9 µM). The “MIC S. pneumo. 1016” value in assay [5] (Streptococcus pneumoniae 1016) was under 0.06 µg/mL.
With `CCC1OC(=O)C(C)C(=O)C(C)C(OC2OC(C)CC(N(C)C)C2O)C(C)(OC)CC(C)C(=O)C(C)C2N(CC3CCCN3C(=O)c3cccc4ncccc34)C(=O)OC12C` [Example 12.11, 3-descladinosyl-11,12-dideoxy-6-O-methyl-3-oxo-12,11-(oxycarbonyl-((1-(quinoline-5-carbonyl)-(S)pyrrolidin-2-yl)-methyl)-imino)-erythromycin A], the “MIC S. pneumo. 1095” value in assay [1] (S. pneumoniae 1095 (ermB)) came out at 0.5 µg/mL (≈ 0.588 µM). Further, the “MIC S. pneumo. 1175” value in assay [2] (S. pneumoniae 1175 (mefA)) was 1 µg/mL (≈ 1.18 µM). In assay [3] (setting [6]), the “MIC H. influenzae 1218” value amounted to 8 µg/mL (≈ 9.4 µM). Besides, the “MIC S. pyogenes 1079” value in assay [4] (S. pyogenes 1079 (ermB)) was over 64.00 µg/mL. Besides, in assay [5] (setting [7]), the “MIC S. pneumo. 1016” value is under 0.06 µg/mL.
For the compound `CCC1OC(=O)C(C)C(=O)C(C)C(OC2OC(C)CC(N(C)C)C2O)C(C)(OC)CC(C)C(=O)C(C)C2N(C3CN(C(C)c4ccnc5cccnc45)C3)C(=O)OC12C` (stereo not drawn) [Example 1.38, 3-descladinosyl-11,12-dideoxy-6-O-methyl-3-oxo-12,11-(oxycarbonyl-(1-(1S-(1,5-naphthyridin-4-yl)-ethyl)-azetidin-3-yl)-imino)erythromycin A], the “MIC S. pneumo. 1095” value in assay [1] (Streptococcus pneumoniae 1095) is under 0.06 µg/mL. The “MIC S. pneumo. 1175” value in assay [2] (Streptococcus pneumoniae 1175) turned out to be 0.25 µg/mL (≈ 0.303 µM). The “MIC H. influenzae 1218” value in assay [3] (Haemophilus influenzae 1218) is 1 µg/mL (≈ 1.21 µM). For the same compound, the “MIC S. pyogenes 1079” value in assay [4] (Streptococcus pyogenes 1079) is 4 µg/mL (≈ 4.85 µM). Moreover, in assay [5] (Streptococcus pneumoniae 1016), the “MIC S. pneumo. 1016” value is under 0.06 µg/mL.
Regarding `CCC1OC(=O)C(C)C(=O)C(C)C(OC2OC(C)CC(N(C)C)C2O)C(C)(OC)CC(C)C(=O)C(C)C2N(CC3CCCN3Cc3cccnc3OC)C(=O)OC12C` (centres unmarked) [12.02], the “MIC S. pneumo. 1095” value in assay [1] (S. pneumoniae 1095 (ermB)) was found to be 8 µg/mL (≈ 9.79 µM). Moreover, in assay [2] (S. pneumoniae 1175 (mefA)), the “MIC S. pneumo. 1175” value was 8 µg/mL (≈ 9.79 µM). Further, the “MIC H. influenzae 1218” value in assay [3] (setting [6]) stood at 16 µg/mL (≈ 19.6 µM). Besides, the “MIC S. pyogenes 1079” value in assay [4] (S. pyogenes 1079 (ermB)) is over 64.00 µg/mL. Further, the “MIC S. pneumo. 1016” value in assay [5] (setting [7]) was under 0.06 µg/mL.
For `CCC1OC(=O)C(C)C(=O)C(C)C(OC2OC(C)CC(N(C)C)C2O)C(C)(OC)CC(C)C(=O)C(C)C2N(CC3CCN(Cc4cccnc4OC)CC3)C(=O)OC12C` (centres unmarked) [15.06], in assay [1] (S. pneumoniae 1095 (ermB)), the “MIC S. pneumo. 1095” value is over 64.00 µg/mL. Moreover, in assay [2] (S. pneumoniae 1175 (mefA)), the “MIC S. pneumo. 1175” value came to 0.5 µg/mL (≈ 0.602 µM). In addition, the “MIC H. influenzae 1218” value in assay [3] (setting [6]) came out at 32 µg/mL (≈ 38.5 µM). The “MIC S. pyogenes 1079” value in assay [4] (S. pyogenes 1079 (ermB)) is over 64.00 µg/mL. In addition, the “MIC S. pneumo. 1016” value in assay [5] (setting [7]) was under 0.06 µg/mL.
On to `CCC1OC(=O)C(C)C(=O)C(C)C(OC2OC(C)CC(N(C)C)C2O)C(C)(OC)CC(C)C(=O)C(C)C2N(C3CN(S(=O)(=O)c4cccc(-c5ncno5)c4)C3)C(=O)OC12C` (centres unmarked) [Example 3.59], for which the “MIC S. pneumo. 1095” value in assay [1] (Streptococcus pneumoniae 1095) came to 8 µg/mL (≈ 9.13 µM). Besides, in assay [2] (Streptococcus pneumoniae 1175), the “MIC S. pneumo. 1175” value stood at 8 µg/mL (≈ 9.13 µM). In assay [3] (Haemophilus influenzae 1218), the “MIC H. influenzae 1218” value came out at 16 µg/mL (≈ 18.3 µM). The “MIC S. pyogenes 1079” value in assay [4] (Streptococcus pyogenes 1079) amounted to 64 µg/mL (≈ 73.1 µM). For the same compound, the “MIC S. pneumo. 1016” value in assay [5] (Streptococcus pneumoniae 1016) was under 0.06 µg/mL.
As for `CCC1OC(=O)C(C)C(=O)C(C)C(OC2OC(C)CC(N(C)C)C2O)C(C)(OC)CC(C)C(=O)C(C)C2N(CC3CCN(C(=O)c4cccc5ncsc45)C3)C(=O)OC12C` (centres unmarked) [13.14], in assay [1] (S. pneumoniae 1095 (ermB)), the “MIC S. pneumo. 1095” value was found to be 2 µg/mL (≈ 2.33 µM). Moreover, the “MIC S. pneumo. 1175” value in assay [2] (S. pneumoniae 1175 (mefA)) was under 0.06 µg/mL. Besides, the “MIC H. influenzae 1218” value in assay [3] (setting [6]) is 1 µg/mL (≈ 1.17 µM). The “MIC S. pyogenes 1079” value in assay [4] (S. pyogenes 1079 (ermB)) was over 64.00 µg/mL. The “MIC S. pneumo. 1016” value in assay [5] (setting [7]) was under 0.06 µg/mL.
With `CCC1OC(=O)C(C)C(=O)C(C)C(OC2OC(C)CC(N(C)C)C2O)C(C)(OC)CC(C)C(=O)C(C)C2N(C3CN(C(c4ccccc4)c4ccncc4)C3)C(=O)OC12C` (single isomer, unassigned) [Example 1.68, phenyl-(pyridin-4-yl)methyl (*)], the “MIC S. pneumo. 1095” value in assay [1] (Streptococcus pneumoniae 1095) came to 4 µg/mL (≈ 4.79 µM). In assay [2] (Streptococcus pneumoniae 1175), the “MIC S. pneumo. 1175” value was under 0.06 µg/mL. Moreover, the “MIC H. influenzae 1218” value in assay [3] (Haemophilus influenzae 1218) was 4 µg/mL (≈ 4.79 µM). The “MIC S. pyogenes 1079” value in assay [4] (Streptococcus pyogenes 1079) came out at 32 µg/mL (≈ 38.3 µM). Also, the “MIC S. pneumo. 1016” value in assay [5] (Streptococcus pneumoniae 1016) was under 0.06 µg/mL.
Regarding `CCC1OC(=O)C(C)C(=O)C(C)C(OC2OC(C)CC(N(C)C)C2O)C(C)(OC)CC(C)C(=O)C(C)C2N(C3CN(Cc4cccc5ncccc45)C3)C(=O)OC12C` (centres unmarked) [Example 1.06, 3-descladinosyl-11,12-dideoxy-6-O-methyl-3-oxo-12,11-(oxycarbonyl-(1-((quinolin-5-yl)-methyl)-azetidin-3-yl)-imino)-erythromycin A], the “MIC S. pneumo. 1095” value in assay [1] (Streptococcus pneumoniae 1095) was under 0.06 µg/mL. Besides, the “MIC S. pneumo. 1175” value in assay [2] (Streptococcus pneumoniae 1175) is under 0.06 µg/mL. For the same compound, the “MIC H. influenzae 1218” value in assay [3] (Haemophilus influenzae 1218) was 1 µg/mL (≈ 1.24 µM). Further, the “MIC S. pyogenes 1079” value in assay [4] (Streptococcus pyogenes 1079) turned out to be 4 µg/mL (≈ 4.94 µM). The “MIC S. pneumo. 1016” value in assay [5] (Streptococcus pneumoniae 1016) is under 0.06 µg/mL.
In the case of `CCC1OC(=O)C(C)C(=O)C(C)C(OC2OC(C)CC(N(C)C)C2O)C(C)(OC)CC(C)C(=O)C(C)C2N(C3CN(Cc4cccc5nc[nH]c45)C3)C(=O)OC12C` (centres unmarked) [Example 1.11, 3-descladinosyl-11,12-dideoxy-6-O-methyl-3-oxo-12,11-(oxycarbonyl-(1-((1H-benzoimidazol-7-yl)-methy)-azetidin-3-yl)-imino)-erythromycin A], in assay [1] (Streptococcus pneumoniae 1095), the “MIC S. pneumo. 1095” value is under 0.06 µg/mL. In addition, the “MIC S. pneumo. 1175” value in assay [2] (Streptococcus pneumoniae 1175) is 0.5 µg/mL (≈ 0.627 µM). Further, the “MIC H. influenzae 1218” value in assay [3] (Haemophilus influenzae 1218) was under 0.06 µg/mL. For the same compound, the “MIC S. pyogenes 1079” value in assay [4] (Streptococcus pyogenes 1079) stood at 4 µg/mL (≈ 5.01 µM). For the same compound, the “MIC S. pneumo. 1016” value in assay [5] (Streptococcus pneumoniae 1016) was under 0.06 µg/mL.
`CCC1OC(=O)C(C)C(=O)C(C)C(OC2OC(C)CC(N(C)C)C2O)C(C)(OC)CC(C)C(=O)C(C)C2N(C3CN(S(=O)(=O)c4ccc(-c5cnco5)cc4)C3)C(=O)OC12C` (centres unmarked) [Example 3.13, 3-descladinosyl-11,12-dideoxy-6-O-methyl-3-oxo-12,11-(oxycarbonyl-(1-(4-(oxazol-5-yl)-benzenesulfonyl)-azetidin-3-yl)-imino)-erythromycin A]: the “MIC S. pneumo. 1095” value in assay [1] (Streptococcus pneumoniae 1095) came out at 0.12 µg/mL (≈ 0.137 µM). The “MIC S. pneumo. 1175” value in assay [2] (Streptococcus pneumoniae 1175) was under 0.06 µg/mL. Moreover, the “MIC H. influenzae 1218” value in assay [3] (Haemophilus influenzae 1218) was 0.25 µg/mL (≈ 0.286 µM). Further, the “MIC S. pyogenes 1079” value in assay [4] (Streptococcus pyogenes 1079) amounted to 4 µg/mL (≈ 4.57 µM). Besides, the “MIC S. pneumo. 1016” value in assay [5] (Streptococcus pneumoniae 1016) is under 0.06 µg/mL.
